Where two headings read alike, the source gives them in different places. Non-standard residues stand in square brackets, D forms with d. Residues, ends and D or L forms follow the SMILES beside them. *: point of attachment. Sta = CC(C)C[C@H](N)[C@@H](O)CC(=O)O; AMC = Cc1cc(=O)oc2cc(N*)ccc12; Isovaleryl = CC(C)CC(=O)*; Boc = CC(C)(C)OC(=O)*

Assay [1] deals with Mobiluncus curtisii ATCC strain 35241 cell hydrolysis of the conjugate, L-prolyl-beta-naphthylamide. Type of assay: biochemical. To be noted: PRO.NAM conjugate, 2 minutes incubation, read after 3 minutes, water control 2. On the set-up: key: -: no red color formation; +/-: possible red color formation; +: clearly visible red color formation; ++: extremely intense red color formation. The procedure:
30 µL cell suspension, 10 µL conjugate, PRO.NAM, and 10 µL salt solution or water were added to test tubes, and the suspension incubated for 2 minutes at room temperature. 20 µL of the suspension was removed from the incubation tubes and added to Fast Garnet GBC chromogenic indicator laminae. After 3 minutes, the Fast Garnet GBC indicator laminae were examined for a red color.

Assay [2] has as its system Mobiluncus curtisii ATCC strain 35241 hydrolysis of the conjugate, L-arginyl-beta-naphthylamide (ARG.NAM). Type of assay: biochemical. To be noted: pH 8.0 Tris, 1 hour at room temperature, water control 2. The procedure: (§1) 20 µL cell suspension, 50 µL water, 10 µL salt solution, 10 µL buffer, and 5 µL conjugate, ARG.NAM, were added to test tubes, and the suspension incubated for 1 hour at room temperature. 100 µL of the PDMAC chromogen reagent was added, and red color formation after 5 minutes was noted.

The test system of assay [3] is Mobiluncus curtisii ATCC strain 35241 cell hydrolysis of Z-L-arg.L-arg.AFC. In words: Enzyme inhibitors on cell hydrolysis of Z-ARG.ARG.AFC, PDMAC chromogen (Experiment X). Type of assay: biochemical. On the set-up: key: 0: no red color formation; 0.25: faintest red color detectable visually; 0.5: distinct red color; red color between 1.0 and 2.0 in intensity; 2.0: darkest red color possible in test system. Conditions: Z-ARG.ARG.AFC as the conjugate, 1.5 hours at room temperature, water control 2. On the procedure: (§2) 50 µL cell suspension, 5 µL conjugate, 10 µL inhibitor, and 35 µL buffer were added to test tubes, and the suspension incubated for 1.5 hours at room temperature. 90 µL of the incubated suspension was added to 90 µL of the chromogen solution and the color formation noted.

The test system of assay [4] is Mobiluncus curtisii ATCC strain 35241 cell hydrolysis of t-boc-L-val.L-leu.L-lys.7-amino-4-methyl coumarin. In words: Enzyme inhibitors on cell hydrolysis of t-boc.VAL.LEU.LYS.7-AMC, PDMAC chromogen (Experiment X). Type of assay: biochemical. On the set-up: key to TEST COLOR: -: no red color formation; +/-: possible red color formation; +: clearly visible red color formation; ++: extremely intense red color formation. Conditions: for TEST COLOR: t-boc.VAL.LEU.LYS.7-AMC as the conjugate, 1.5 hours at room temperature, no inhibitor 2. On the procedure: as §2

For assay [5], the system named is Mobiluncus curtisii ATCC strain 35241 hydrolysis of L-prolyl-beta-naphthylamide (proline iminopeptidase activity). In words: Enzyme inhibitors on hydrolysis of L-prolyl-beta-naphthylamide, PDMAC chromogen (Experiment VIII). Type of assay: biochemical. To be noted: PRO.NAM conjugate, 1.5 hours at room temperature, water control 2. The procedure:
150 µL cell suspension, 10 µL conjugate, (PRO.NAM), 10 µL inhibitor, and 30 µL buffer were added to test tubes, and the suspension incubated for 1.5 hours at room temperature. 80 µL of the suspension was removed from the incubation tubes and added to 80 µL of the chromogen solution in a second set of tubes and the color formation noted.

Assay [6] relates to Mobiluncus curtisii ATCC strain 35241 hydrolysis of the conjugate, L-prolyl-beta-naphthylamide. Type of assay: biochemical. On the set-up: key: 0: no red color formation; 0.25: faintest red color detectable visually; 0.5: distinct red color; red color between 1.0 and 2.0 in intensity; 2.0: darkest red color possible in test system. To be noted: 10 µL of 100 mM metal salt, PRO.NAM conjugate. The procedure: (§3) 20 µL cell suspension, 40 µL water, 10 µL salt solution, and 10 µL conjugate solutions (PRO.NAM or ARG.NAM) were added to test tubes, and mixed thoroughly. Immediately thereafter, 20 µL aliquots were removed from each tube, and added directly to Fast Garnet GBC chromogenic indicator laminae. After 5 minutes at room temperature, the Fast Garnet GBC sheets were examined for the formation of a red color.

For assay [7], the system named is Mobiluncus curtisii ATCC strain 35241 hydrolysis of the conjugate, L-arginyl-beta-naphthylamide. In words: Manganese and zinc chlorides on hydrolysis of ARG.NAM at high and low pH, Fast Garnet GBC laminae (Experiment XIII). Type of assay: biochemical. Conditions: 10 µL of 100 mM metal salt. On the procedure:
as §3

Assay [8] concerns Mobiluncus curtisii ATCC Strain 35241. In words: Hydrolysis of conjugates by microbial cells, PDMAC chromogen in solution (Experiment IV). Type of assay: biochemical. To be noted: preparation and pH not given. The procedure:
50 µL distilled water, 25 µL buffer, and 25 µL microbial suspension were mixed. 5 µL conjugate was added, and the mixture allowed to incubate for 10 minutes at room temperature. 100 µL PDMAC was added to each incubation, and the color score noted.

The subject of assay [9] is Mobiluncus curtisii ATCC strain 35241 proline iminopeptidase activity. In words: Inhibition of proline iminopeptidase activity by detergents, PRO.NAM conjugate, PDMAC chromogen (Experiment VII). Type of assay: biochemical. On the procedure: To one set of four test tubes were added 20 µL cell suspension, 5 µL conjugate, and 65 µL distilled water. After 10 minutes incubation at room temperature, 10 µL detergent and 90 µL chromogen solution was added and the color formation noted. To a second set of four test tubes were added 20 µL cell suspension, 5 µL conjugate, and 65 µL detergent solution. After 10 minutes incubation of these components at room temperature, 10 µL water and 90 µL chromogen solution was added and the color formation noted.

For assay [10], the system named is Mobiluncus curtisii ATCC strain 35241 hydrolysis of the conjugate, L-arginyl-beta-naphthylamide (ARG.NAM). Type of assay: biochemical. On the set-up: key: -: no red color formation; +/-: possible red color formation; +: clearly visible red color formation; ++: extremely intense red color formation. To be noted: metal salt 5 mM, pH 8.0 Tris, 1 hour at room temperature, water control 2. The procedure:
as §1

For assay [11] the test system is unchanged. Type of assay: biochemical. To be noted: metal salt 5 mM, pH 8.0 Tris, 1 hour at room temperature, water control 2. On the set-up: key: 0: no red color formation; 0.25: faintest red color detectable visually; 0.5: distinct red color; red color between 1.0 and 2.0 in intensity; 2.0: darkest red color possible in test system. The procedure:
as §1

The test system of assay [12] is proline iminopeptidase activity in Mobiluncus curtsii ATCC strain 35241 cells. In words: Diazonium dye indicator laminae in test devices with PRO.NAM lamina: color with Mobiluncus curtisii suspension (Experiment III). Type of assay: biochemical, Mobiluncus curtisii ATCC strain 35241. Conditions: dye indicator lamina and PRO.NAM lamina in test device; about 40 microliters cell suspension; 10 minutes at room temperature. The procedure: Chromogenic indicator laminae of Fast Garnet GBC, 15 mg; Fast Black K, 57 mg; Fast Dark Blue, Fast Bordeaux, Fast Violet, and Fast Red B, 21 mg prepared as described in P[…] and proline iminopeptidase-hydrolyzable conjugate, L-prolyl-beta-naphthylamide, (13 mg/ml) prepared as described in P[…] were manually assembled into test devices (P[…]). • 1. Tests of device performance with the reporter group, beta-naphthylamine. Approximately 40 microliters of 500 micromolar beta-naphthylamine solution was added to the manually assembled kits. After 10 minutes, color formation was noted. • 2. Test kit performance with proline iminopeptidase activity in Mobiluncus curtsii ATCC strain 35241 cells.
Approximately 40 microliters of the Mobiluncus curtisii ATCC strain 35241 suspension were added to each test kit. After 10 minutes at room temperature, the appearance of color was determined.

Regarding `[Ca+2].[Cl-].[Cl-]` [CaCl2], the “TEST COLOR” value in assay [1] (metal salt 20 mM) and in assay [2] (metal salt 5 mM) was 2 each time.

Turning to CrCl2, in assay [1] (metal salt 20 mM), the “TEST COLOR” value was found to be 2.

As for `CCN1C(=O)C=CC1=O` [NEM, N-ethylmaleimide], the “TEST COLOR” value in assay [3] (CONCENTRATION (Mm) 2), in assay [4] (CONCENTRATION (Mm) 2) and in [5] (inhibitor 0.5 mM) was 2 in each case.

With `[Cl][Mn][Cl]` [MnCl2, manganese chloride], the results for the “TEST COLOR” value in assay [1] (metal salt 20 mM) and in assay [2] (metal salt 5 mM) were 2 and 1, respectively. Further, the “COLOR SCORE 5 MINUTES” value amounted to 1 in [6] (pH 5, without salt 1); 0.5 in assay [6] (pH 8, without salt 0.5); 0 in assay [7] (pH 5, without salt 0); 0 in [7] (pH 8, without salt 0.5).

Take `O[C@H](CS)[C@H](O)CS` (racemic) [DTT, dithiothreitol]: the “TEST COLOR” value in assay [3] (CONCENTRATION (Mm) 1), in assay [4] (CONCENTRATION (Mm) 1) and in assay [5] (inhibitor 1 mM) was 2 each time.

In the case of MgCl2, the “TEST COLOR” value in [1] (metal salt 20 mM) was 2.

Regarding `Cc1cc(=O)oc2cc(NC(=O)[C@H](CCCCN)NC(=O)[C@H](CC(C)C)NC(=O)[C@@H](NC(=O)OC(C)(C)C)C(C)C)ccc12` [T-boc.VAL. LEU.LYS.AMC, Tert-butyloxycarbonyl-L-valyl-L-leucyl.L-lysyl-7-amino-4-methyl coumarin] (Boc-Val-Leu-Lys-{AMC}), the “M. CURTISII PDMAC COLOR (PREP., pH)” value in assay [8] was 2.

For the compound `CC(C)CC(=O)N[C@H](C(=O)N[C@H](C(=O)N[C@@H](CC(C)C)[C@@H](O)CC(=O)N[C@@H](C)C(=O)N[C@@H](CC(C)C)[C@@H](O)CC(=O)O)C(C)C)C(C)C` [pepstatin] (Isovaleryl-VV[Sta]A[Sta]-OH), the “TEST COLOR” value in assay [3] (CONCENTRATION (Mm) 0.5), in assay [4] (CONCENTRATION (Mm) 0.5) and in assay [5] (inhibitor 0.5 mM) was 2 each time.

Regarding `Cc1ccc(S(=O)(=O)N[C@@H](CCCCN)C(=O)CCl)cc1` [TLCK, N-tosyl-L-lysine-chloromethyl ketone], the “TEST COLOR” value was 0.5 in [3] (CONCENTRATION (Mm) 0.5) and 0 in assay [4] (CONCENTRATION (Mm) 0.5).

`CCCCCCCCCCCCCCCCCCOS(=O)(=O)[O-].[Na+]` [sodium octadecyl sulfate]: the COLOR result is “red” in assay [9] (detergent (10 µL) added after the 10 minute incubation, with the chromogen); “yellow” in assay [9] (detergent among first additions, present with cells and PRO.NAM during the 10 minute incubation, red = hydrolysis, yellow = none).

Turning to mercuric chloride [HgCl2], the “TEST COLOR” value in [1] (metal salt 1 mM) worked out at 0.

Regarding `O=S(=O)(F)Cc1ccccc1` [PMSF, phenyl methyl sulfonyl fluoride], the “TEST COLOR” value is reported as 2 in [3] (CONCENTRATION (Mm) 0.5), 1 in [4] (CONCENTRATION (Mm) 0.5) and 2 in [5] (inhibitor 2 mM). Besides, the inhibited activity entry in assay [4] (hydrolysis of T-boc-VAL.LEU.LYS.AMC) is reported as “approximately 50%”.

With cupric chloride [CuCl2], the “TEST COLOR” value in assay [1] (metal salt 5 mM) is reported as 0; in assay [2] (metal salt 1 mM) it was 1; in [10] it was 0.

On to `O=C(O)CN(CCOCCOCCN(CC(=O)O)CC(=O)O)CC(=O)O` [EGTA, ethyleneglycol-bis-(beta-aminoethyl ether)-N,N,N',N'-tetraacetic acid], for which the “TEST COLOR” value in assay [3] (CONCENTRATION (Mm) 5), in assay [4] (CONCENTRATION (Mm) 5) and in [5] (inhibitor 5 mM) was 2 in each case.

Take `Cc1ccc(S(=O)(=O)N[C@@H](Cc2ccccc2)C(=O)CCl)cc1` [TPCK, N-tosyl-L-phenylalanine chloromethyl ketone]: the “TEST COLOR” value in assay [3] (CONCENTRATION (Mm) 0.5) was 0.5; in assay [4] (CONCENTRATION (Mm) 0.5) it was 0; in assay [5] (inhibitor 0.5 mM) it was 2.

As for zinc chloride [ZnCl2], the figures for the “TEST COLOR” value in assay [1] (metal salt 20 mM), in assay [2] (metal salt 1 mM) and in assay [11] were 2, 1 and 0.5, respectively. The “COLOR SCORE 5 MINUTES” value in [6] (pH 5, without salt 1) was found to be 1; in assay [6] (pH 8, without salt 0.5), 0.5; in [7] (pH 5, without salt 0), 0; in assay [7] (pH 8, without salt 0.5), 0.

Take `Cc1ccccc1N=Nc1ccc([N+]#N)c(C)c1` [Fast Garnet GBC]: the “color formation with Mobiluncus Curtisii” value in assay [12] is “red”.

As to `O=C(O)c1cc[c]([Hg][Cl])cc1` [PCMB, para-chloromercuribenzoate], the “TEST COLOR” value in assay [5] (inhibitor 0.5 mM) is on record as 2.

(Values after patent EP0791071B1, “ASSAY FOR PROLINE IMINOPEPTIDASE AND OTHER HYDROLYTIC ACTIVITIES” (LITMUS CONCEPTS, INC., priority 1994, dated 1996).)
